Experimental data reported in paper PMC7317746 (Environmental and Molecular Mutagenesis, 2020).

Test system: male Sprague Dawley rats
Experiment: Pig‐a assay
Assay type: in vivo, rat
[1] = 1-Month Study, 40 mg/kg/day Days 1-3, Day 15, positive control
[2] = 1-Month Study, 40 mg/kg/day Days 1-3, Day 29, positive control
[3] = 1-Month Study, 40 mg/kg/day, Day -1 (pre-treatment)
[4] = 3-Day Study, 40 mg/kg/day Days 1-3, Day 15, positive control
[5] = 3-Day Study, 40 mg/kg/day Days 1-3, Day 30, positive control
[6] = 3-Day Study, 40 mg/kg/day Days 1-3, Day 45, positive control
[7] = 3-Day Study, 40 mg/kg/day, Day -4 (pre-treatment)

CCN(N=O)C(N)=O [ENU, N‐ethyl‐N‐nitrosourea]
%RETs mean ± SD [1]: 3.1 ± 0.4% | Number of CD59‐Neg RBCs per 10^6 RBCs mean ± SD [1]: 79.5 ± 12.3 per 10^6 RBCs | Number of CD59‐Neg RETs per 10^6 RETs mean ± SD [1]: 356.2 ± 64.4 per 10^6 RETs | %RETs mean ± SD [2]: 3.7 ± 0.7% | Number of CD59‐Neg RBCs per 10^6 RBCs mean ± SD [2]: 211.0 ± 26.9 per 10^6 RBCs | Number of CD59‐Neg RETs per 10^6 RETs mean ± SD [2]: 291.4 ± 33.7 per 10^6 RETs | %RETs mean ± SD [3]: 4.8 ± 0.7% | Number of CD59‐Neg RBCs per 10^6 RBCs mean ± SD [3]: 0.6 ± 0.3 per 10^6 RBCs | Number of CD59‐Neg RETs per 10^6 RETs mean ± SD [3]: 0.5 ± 0.5 per 10^6 RETs | %RETs mean ± SD [4]: 3.3 ± 1.1% | Number of CD59‐Neg RBCs per 10^6 RBCs mean ± SD [4]: 97.7 ± 7.2 per 10^6 RBCs | Number of CD59‐Neg RETs per 10^6 RETs mean ± SD [4]: 414.2 ± 6.5 per 10^6 RETs | %RETs mean ± SD [5]: 3.3 ± 0.6% | Number of CD59‐Neg RBCs per 10^6 RBCs mean ± SD [5]: 256.7 ± 62.0 per 10^6 RBCs | Number of CD59‐Neg RETs per 10^6 RETs mean ± SD [5]: 282.7 ± 77.4 per 10^6 RETs | %RETs mean ± SD [6]: 2.7 ± 0.7% | Number of CD59‐Neg RBCs per 10^6 RBCs mean ± SD [6]: 382.7 ± 26.3 per 10^6 RBCs | Number of CD59‐Neg RETs per 10^6 RETs mean ± SD [6]: 305.9 ± 59.5 per 10^6 RETs | %RETs mean ± SD [7]: 3.2 ± 0.4% | Number of CD59‐Neg RBCs per 10^6 RBCs mean ± SD [7]: 0.4 ± 0.1 per 10^6 RBCs | Number of CD59‐Neg RETs per 10^6 RETs mean ± SD [7]: 1.6 ± 0.7 per 10^6 RETs
